Results: patent publication US20220226265A1, “METHODS OF CONTROLLING MYOCARDIAL BLOOD FLOW” (UNIVERSITY OF LOUISVILLE RESEARCH FOUNDATION, INC., priority 2021, published 2022)

System: WT and Kvβ2−/− mice
Assay: Arterial blood pressure (femoral artery catheter) during norepinephrine infusion
Assay type: in vivo, mouse
Conditions: norepinephrine infusion 5 μg/kg·min−1
Excerpt: In vivo measurements of cardiac function and myocardial blood flow: Mice were anesthetized with 3% isoflurane and supplemental O2, administered (1 L·min^−1) in a small induction chamber. After induction, the mice were placed on a controlled heating table in a supine position. Anesthesia was maintained throughout the procedure by delivery of 1-2% isoflurane and supplemental O2 (0.5 L·min^−1). The extremities were secured to the surgical table by tape and a lubricated probe was inserted rectally to monitor body temperature. The chest, neck, and hind limb hair were then removed using a depilatory agent, the skin was rinsed with warm water, and the neck area was disinfected with 70% ethanol/betadine and an incision (10-15 mm) was made at the right side of the neck. […]
Measurements of cardiac function, myocardial perfusion, and arterial blood pressure were performed at baseline, after administration of hexamethonium (5 mg·kg^−1, i.v.), and following successive doses of norepinephrine (0.5, 1.0, 2.5, and 5.0 μg·kg^−1·min^−1; 3 min duration each dose, followed by 3-5 min washout). […] Left ventricular volume at end diastole (LVEDV) and end systole (LVESV), as well left ventricular internal diameter at end diastole (LVID,d) and end systole (LVID,s) were measured at steady state after drug infusions. […]

**Q.** How did the “time of infusion after which norepinephrine-induced elevation of pressure declined” value (Kvβ2−/− mice) turn out when `NC[C@H](O)c1ccc(O)c(O)c1` [norepinephrine] was run?
**A.** Its value is ~40 s.

**Q.** And the “increase in arterial blood pressure” value (WT animals)?
**A.** Its value is “sustained for the duration of drug administration”.
